Measurements as given in ChEMBL document CHEMBL4190346, “Structure-based design, synthesis, and biological evaluation of withaferin A-analogues as potent apoptotic inducers” (Eur J Med Chem, 2017).

Legend:
HeLa [1] = assay: Cytotoxicity against human HeLa cells assessed as reduction in cell viability using compound addition to cell culture cells in lag phase of growth and incubated for 48 hrs by MTT assay; format: functional, cell-based
HeLa [2] = assay: Cytotoxicity against human HeLa cells assessed as reduction in cell viability using compound addition to cell culture cells in log phase of growth and incubated for 48 hrs by MTT assay; format: functional, cell-based
A549 [3] = assay: Cytotoxicity against human A549 cells assessed as reduction in cell viability using compound addition to cell culture cells in lag phase of growth and incubated for 48 hrs by MTT assay; format: functional, cell-based
A549 [4] = assay: Cytotoxicity against human A549 cells assessed as reduction in cell viability using compound addition to cell culture cells in log phase of growth and incubated for 48 hrs by MTT assay; format: functional, cell-based
MCF7 [5] = assay: Cytotoxicity against human MCF7 cells assessed as reduction in cell viability using compound addition to cell culture cells in lag phase of growth and incubated for 48 hrs by MTT assay; format: functional, cell-based
MCF7 [6] = assay: Cytotoxicity against human MCF7 cells assessed as reduction in cell viability using compound addition to cell culture cells in log phase of growth and incubated for 48 hrs by MTT assay; format: functional, cell-based
Vero [7] = assay: Cytotoxicity against African green monkey Vero cells assessed as reduction in cell viability using compound addition to cell culture cells in lag phase of growth and incubated for 48 hrs by MTT assay; format: cell-based, Chlorocebus sabaeus
Vero [8] = assay: Cytotoxicity against African green monkey Vero cells assessed as reduction in cell viability using compound addition to cell culture cells in log phase of growth and incubated for 48 hrs by MTT assay; format: cell-based, Chlorocebus sabaeus
[9] = Homo sapiens, HeLa, 48 h, read-out: IC50
[10] = Homo sapiens, A549, 48 h, read-out: IC50
[11] = Homo sapiens, MCF7, 48 h, read-out: IC50
[12] = Chlorocebus sabaeus, Vero, 48 h, read-out: IC50

SMILES	IC50 (HeLa [1]; [9]) [µM]	IC50 (HeLa [2]; [9]) [µM]	IC50 (A549 [3]; [10]) [µM]	IC50 (A549 [4]; [10]) [µM]	IC50 (MCF7 [5]; [11]) [µM]	IC50 (MCF7 [6]; [11]) [µM]	IC50 (Vero [7]; [12]) [µM]	IC50 (Vero [8]; [12]) [µM]	IC50 (HeLa [1]; hela)	IC50 (HeLa [2]; hela)	IC50 (A549 [3]; a549)	IC50 (A549 [4]; a549)	IC50 (MCF7 [5]; mcf7)	IC50 (MCF7 [6]; mcf7)	IC50 (Vero [7]; vero)	IC50 (Vero [8]; vero)
C[C@@H]([C@H]1CC[C@H]2[C@@H]3C[C@H]4O[C@]45[C@@H](O)[C@H]4O[C@H]4C(=O)[C@]5(C)[C@H]3CC[C@]12C)[C@H]1C[C@@]2(C)O[C@@]2(CO)C(=O)O1	> 40	> 40	> 40	> 40	> 40	> 40	> 40	> 40	–	–	–	–	–	–	–	–
CC(=O)OCC1=C(C)C[C@H]([C@@H](C)[C@H]2CC[C@H]3[C@@H]4C[C@H](Cl)[C@]5(O)[C@@H](O)C=CC(=O)[C@]5(C)[C@H]4CC[C@]23C)OC1=O	16.1	14.8	10.8	17.1	10.9	7.2	4.8	6.5	–	–	–	–	–	–	–	–
CC1=C(C)C(=O)O[C@@H]([C@@H](C)[C@H]2CC[C@H]3[C@@H]4C[C@H]5O[C@]56[C@@H](O)CC[C@@H](O)[C@]6(C)[C@H]4CC[C@]23C)C1	> 40	> 40	> 40	> 40	> 40	> 40	> 40	> 40	–	–	–	–	–	–	–	–
CO[C@H]1CC(=O)[C@]2(C)[C@H]3CC[C@]4(C)[C@@H]([C@H](C)[C@H]5CC(C)=C(CO)C(=O)O5)CC[C@H]4[C@@H]3C[C@H]3O[C@]32[C@H]1O	> 40	> 40	> 40	> 40	> 40	> 40	> 40	> 40	–	–	–	–	–	–	–	–
COc1ccc(C(=O)OCC2=C(C)C[C@H]([C@@H](C)[C@H]3CC[C@H]4[C@@H]5C[C@H](Cl)[C@]6(O)[C@@H](OC(=O)c7ccc(OC)cc7)C=CC(=O)[C@]6(C)[C@H]5CC[C@]34C)OC2=O)cc1	11.2	28.1	24	> 40	3	4.5	3.7	3	–	–	–	–	–	–	–	–
CCCCCCCCCCCC(=O)OCC1=C(C)C[C@H]([C@@H](C)[C@H]2CC[C@H]3[C@@H]4C[C@H]5O[C@]56[C@@H](OC(=O)CCCCCCCCCCC)C=CC(=O)[C@]6(C)[C@H]4CC[C@]23C)OC1=O	–	–	–	–	–	–	–	–	Nd(Insoluble)	Nd(Insoluble)	Nd(Insoluble)	Nd(Insoluble)	Nd(Insoluble)	Nd(Insoluble)	Nd(Insoluble)	Nd(Insoluble)
CC1=C(C=O)C(=O)O[C@@H]([C@@H](C)[C@H]2CC[C@H]3[C@@H]4C[C@H]5O[C@]56C(=O)C=CC(=O)[C@]6(C)[C@H]4CC[C@]23C)C1	12.3	18.5	16.9	16.1	8.9	11	12.8	13.4	–	–	–	–	–	–	–	–
CCCCN[C@H]1CC(=O)[C@]2(C)[C@H]3CC[C@]4(C)[C@@H]([C@H](C)[C@H]5CC(C)=C(CO)C(=O)O5)CC[C@H]4[C@@H]3C[C@H]3O[C@]32[C@H]1O	9.6	8.4	21.8	9.6	7.6	6.9	13.6	20.6	–	–	–	–	–	–	–	–
CC1=C(CO)C(=O)O[C@@H]([C@@H](C)[C@H]2CC[C@H]3[C@@H]4C[C@H]5O[C@]56[C@@H](O)[C@H]5O[C@H]5C(=O)[C@]6(C)[C@H]4CC[C@]23C)C1	> 40	> 40	> 40	> 40	> 40	> 40	> 40	> 40	–	–	–	–	–	–	–	–
CC1=C(COC(=O)c2ccoc2)C(=O)O[C@@H]([C@@H](C)[C@H]2CC[C@H]3[C@@H]4C[C@H](Cl)[C@]5(O)[C@@H](O)C=CC(=O)[C@]5(C)[C@H]4CC[C@]23C)C1	> 40	> 40	> 40	> 40	33.5	28.6	30.6	31.2	–	–	–	–	–	–	–	–
CC1=C(CCl)C(=O)O[C@@H]([C@@H](C)[C@H]2CC[C@H]3[C@@H]4C[C@H]5O[C@]56[C@H](Cl)C=CC(=O)[C@]6(C)[C@H]4CC[C@]23C)C1	3.1	7.9	9.6	18.1	4.1	4.8	1.9	3.1	–	–	–	–	–	–	–	–
COc1ccc(C(=O)OCC2=C(C)C[C@H]([C@@H](C)[C@H]3CC[C@H]4[C@@H]5C[C@H](Cl)[C@]6(O)[C@@H](O)C=CC(=O)[C@]6(C)[C@H]5CC[C@]34C)OC2=O)cc1	26.4	37.7	> 40	> 40	3	6.8	3.8	6.8	–	–	–	–	–	–	–	–
CC1=C(COC(=O)C(C)(C)C)C(=O)O[C@@H]([C@@H](C)[C@H]2CC[C@H]3[C@@H]4C[C@H]5O[C@]56C(=O)C=CC(=O)[C@]6(C)[C@H]4CC[C@]23C)C1	4	1.9	3.7	2.3	1	1.2	4.1	1	–	–	–	–	–	–	–	–
CC1=C(CO)C(=O)O[C@@H]([C@@H](C)[C@H]2CC[C@H]3[C@@H]4C[C@H]5O[C@]56[C@@H](O)CC[C@@H](O)[C@]6(C)[C@H]4CC[C@]23C)C1	> 40	> 40	> 40	> 40	> 40	> 40	> 40	> 40	–	–	–	–	–	–	–	–
CC1=C(CO[Si](C)(C)C(C)(C)C)C(=O)O[C@@H]([C@@H](C)[C@H]2CC[C@H]3[C@@H]4C[C@H](Cl)[C@]5(O)[C@@H](O)C=CC(=O)[C@]5(C)[C@H]4CC[C@]23C)C1	3.1	3.4	4.1	3.8	2.5	3.1	3.5	3.1	–	–	–	–	–	–	–	–
CC(=O)OCC1=C(C)C[C@H]([C@@H](C)[C@H]2CC[C@H]3[C@@H]4C[C@H]5O[C@]56C(=O)C=CC(=O)[C@]6(C)[C@H]4CC[C@]23C)OC1=O	16.3	17.5	13.2	16.2	6.4	6.8	3.9	6.4	–	–	–	–	–	–	–	–
CO[C@H]1C=CC(=O)[C@]2(C)[C@H]3CC[C@]4(C)[C@@H]([C@H](C)[C@H]5CC(C)=C(CO)C(=O)O5)CC[C@H]4[C@@H]3C[C@H]3O[C@]132	2.1	3.8	4	4.4	1.1	1.7	0.9	1.5	–	–	–	–	–	–	–	–
